The compounds below were run against human Cereblon WT GST-tagged protein (Homo sapiens (Human), UniProt Q96SW2) (assay: CRBN-binding affinity, HTRF (CEREBLON BINDING kit)).
Protocol: The CEREBLON BINDING kits (specification: 10,000 tests; product number: Catalog #64BDCRBNPEH; CISBIO company) was used to determine the CRBN binding ability of the compounds to be tested through a HTRF method (homogeneous time-resolved fluorescence). The specific methods are as follows: • 1. […] Then, 2.5 μL of human Cereblon WT GST-tagged protein solution was added to each well. Finally, 5 μL of the thoroughly mixed Thalidomide-Re reagent and GST Eu antibody working solution were added to each of the aforementioned wells. […] The blank control wells were sequentially added with 2.5 μL of diluent #9 (1×) solution, 2.5 μL of PROTAC binding buffer, and 5 μL of thoroughly mixed Thalidomide-Re reagent and GST Eu antibody working solution. • 4.
The corresponding CRBN binding inhibition rate was calculated using the following method: […]

human Cereblon WT GST-tagged protein, sequence (Q96SW2 whole entry): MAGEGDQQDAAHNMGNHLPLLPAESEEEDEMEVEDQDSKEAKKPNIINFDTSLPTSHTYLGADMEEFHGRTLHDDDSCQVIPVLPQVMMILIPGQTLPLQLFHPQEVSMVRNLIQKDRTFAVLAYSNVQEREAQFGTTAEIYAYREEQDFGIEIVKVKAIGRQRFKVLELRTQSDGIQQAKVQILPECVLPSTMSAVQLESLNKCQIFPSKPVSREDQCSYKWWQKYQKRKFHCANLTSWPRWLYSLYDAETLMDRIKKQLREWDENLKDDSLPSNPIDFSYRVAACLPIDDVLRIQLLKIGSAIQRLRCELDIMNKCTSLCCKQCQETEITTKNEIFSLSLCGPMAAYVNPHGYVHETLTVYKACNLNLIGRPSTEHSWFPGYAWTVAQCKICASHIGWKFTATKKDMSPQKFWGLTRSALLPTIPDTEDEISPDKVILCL

Compound | IC50 [nM]
O=C1CCC(N2Cc3cc(CC4CCN(Cc5ccccc5-c5ccc(Cl)cc5)CC4)ccc3C2=O)C(=O)N1 (centres unmarked) [GT-03361, 3-(5-((1-((4′-chloro-[1,1′-biphenyl]-2-yl)methyl)piperidin-4-yl)methyl)-1-oxoisoindolin-2-yl)piperidine-2,6-dione] | 1590
CC1(C)CCC(CN2CCC(Cc3ccc4c(c3)CN(C3CCC(=O)NC3=O)C4=O)CC2)=C(c2ccc(Cl)cc2)C1 (centres unmarked) [GT-03368, 3-(5-((1-((4′-chloro-5,5-dimethyl-3,4,5,6-tetrahydro-[1,1′-biphenyl]-2-yl)methyl)piperidin-4-yl)methyl)-1-oxoisoindolin-2-yl)piperidine-2,6-dione] | 1380
CC1(C)CCC(CN2CCC(Cc3ccc4c(c3)CN(C3CCC(=O)NC3=O)C4=O)CC2)=C(c2ccc(F)cc2)C1 (centres unmarked) [GT-03455, 3-(5-((1-((4′-fluoro-5,5-dimethyl-3,4,5,6-tetrahydro-[1,1′-biphenyl]-2-yl)methyl)piperidin-4-yl)methyl)-1-oxoisoindolin-2-yl)piperidine-2,6-dione] | 340
CC1(C)CCC(CN2CC3CC(C2)N3Cc2ccc3c(c2)CN(C2CCC(=O)NC2=O)C3=O)=C(c2ccc(Cl)cc2)C1 (centres unmarked) [GT-03492, 3-(5-((3-((4′-chloro-5,5-dimethyl-3,4,5,6-tetrahydro-[1,1′-biphenyl]-2-yl)methyl)-3,6-diazabicyclo[3.1.1]heptan-6-yl)methyl)-1-oxoisoindolin-2-yl)piperidine-2,6-dione] | 520
O=C1CCC(N2Cc3cc(CN4CCN(Cc5ccccc5-c5ccc(Cl)cc5)CC4)cc(F)c3C2=O)C(=O)N1 (centres unmarked) [GT-03696, 3-(5-((4-((4′-chloro-[1,1′-biphenyl]-2-yl)methyl)piperazin-1-yl)methyl)-7-fluoro-1-oxoisoindolin-2-yl)piperidine-2,6-dione] | 880
O=C1CCC(N2Cc3cc(NC4CCN(Cc5ccccc5-c5ccc(Cl)cc5)CC4)ccc3C2=O)C(=O)N1 (centres unmarked) [GT-03877, 3-(5-((1-((4′-chloro-[1,1′-biphenyl]-2-yl)methyl)piperidin-4-yl)amino)-1-oxoisoindolin-2-yl)piperidine-2,6-dione] | 1400
O=C1CCC(N2Cc3cc(C(O)C4(O)CN(Cc5ccccc5-c5ccc(Cl)cc5)C4)ccc3C2=O)C(=O)N1 (centres unmarked) [GT-03880, 3-(5-((1-((4′-chloro-[1,1′-biphenyl]-2-yl)methyl)-3-hydroxyazetidin-3-yl)(hydroxy)methyl)-1-oxoisoindolin-2-yl)piperidine-2,6-dione] | 230
CC1(C)CCC(CN2C[C@H]3C[C@@H]2CN3Cc2ccc3c(c2)CN(C2CCC(=O)NC2=O)C3=O)=C(c2ccc(Cl)cc2)C1 (stereo partly drawn) [GT-03887, 3-(5-(((1R,4R)-5-((4′-chloro-5,5-dimethyl-3,4,5,6-tetrahydro-[1,1′-biphenyl]-2-yl)methyl)-2,5-diazabicyclo[2.2.1]heptan-2-yl)methyl)-1-oxoisoindolin-2-yl)piperidine-2,6-dione] | 190
CC1(C)CCC(CN2C[C@H]3C[C@@H]2CN3Cc2ccc3c(c2F)CN(C2CCC(=O)NC2=O)C3=O)=C(c2ccc(Cl)cc2)C1 (stereo partly drawn) [GT-03888, 3-(5-(((1R,4R)-5-((4′-chloro-5,5-dimethyl-3,4,5,6-tetrahydro-[1,1′-biphenyl]-2-yl)methyl)-2,5-diazabicyclo[2.2.1]heptan-2-yl)methyl)-4-fluoro-1-oxoisoindolin-2-yl)piperidine-2,6-dione] | 240
CC1(C)CCC(CN2CC3CCC(C2)N3Cc2ccc3c(c2)CN(C2CCC(=O)NC2=O)C3=O)=C(c2ccc(Cl)cc2)C1 (centres unmarked) [GT-03889, 3-(5-((3-((4′-chloro-5,5-dimethyl-3,4,5,6-tetrahydro-[1,1′-biphenyl]-2-yl)methyl)-3,8-diazabicyclo[3.2.1]octan-8-yl)methyl)-1-oxoisoindolin-2-yl)piperidine-2,6-dione] | 710
O=C1CCC(N2Cc3cc(CC4CN(Cc5ccccc5-c5ccc(Cl)cc5)C4)ccc3C2=O)C(=O)N1 (centres unmarked) [GT-03923, 3-(5-((1-((4′-chloro-[1,1′-biphenyl]-2-yl)methyl)azetidin-3-yl)methyl)-1-oxoisoindolin-2-yl)piperidine-2,6-dione] | 170
O=C1CCC(N2Cc3cc(CN4CCC(Nc5ccccc5-c5ccc(Cl)cc5)CC4)ccc3C2=O)C(=O)N1 (centres unmarked) [GT-03991, 3-(5-((4-((4′-chloro-[1,1′-biphenyl]-2-yl)amino)piperidin-1-yl)methyl)-1-oxoisoindolin-2-yl)piperidine-2,6-dione] | 470
CC1(C)CCC(CN2C3CC2CN(Cc2ccc4c(c2)CN(C2CCC(=O)NC2=O)C4=O)C3)=C(c2ccc(Cl)cc2)C1 (centres unmarked) [GT-03995, 3-(5-((6-((4′-chloro-5,5-dimethyl-3,4,5,6-tetrahydro-[1,1′-biphenyl]-2-yl)methyl)-3,6-diazabicyclo[3.1.1]heptan-3-yl)methyl)-1-oxoisoindolin-2-yl)piperidine-2,6-dione] | 630
CC1(C)CCC(CN2C3CCC2CN(Cc2ccc4c(c2)CN(C2CCC(=O)NC2=O)C4=O)C3)=C(c2ccc(Cl)cc2)C1 (centres unmarked) [GT-03996, 3-(5-((8-((4′-chloro-5,5-dimethyl-3,4,5,6-tetrahydro-[1,1′-biphenyl]-2-yl)methyl)-3,8-diazabicyclo[3.2.1]octan-3-yl)methyl)-1-oxoisoindolin-2-yl)piperidine-2,6-dione] | 1440
O=C1CCC(N2Cc3cc(CN4C5CC4CN(C(=O)C4=C(c6ccc(F)cc6)CCCC4)C5)ccc3C2=O)C(=O)N1 (centres unmarked) [GT-04169, 3-(5-((3-(4′-fluoro-3,4,5,6-tetrahydro-[1,1′-biphenyl]-2-carbonyl)-3,6-diazabicyclo[3.1.1]heptan-6-yl)methyl)-1-oxoisoindolin-2-yl)piperidine-2,6-dione] | 850
O=C1CCC(N2Cc3cc(CN4CCN(C(=O)C5=C(c6ccc(F)cc6)CCCC5)CC4)ccc3C2=O)C(=O)N1 (centres unmarked) [GT-04170, 3-(5-((4-(4′-fluoro-3,4,5,6-tetrahydro-[1,1′-biphenyl]-2-carbonyl)piperazin-1-yl)methyl)-1-oxoisoindolin-2-yl)piperidine-2,6-dione] | 1010
CC1(C)CCC(CN2CC3CC(C2)N3Cc2cc3c(cc2F)C(=O)N(C2CCC(=O)NC2=O)C3)=C(c2ccc(Cl)cc2)C1 (centres unmarked) [GT-05367, 3-(5-((3-((4′-chloro-5,5-dimethyl-3,4,5,6-tetrahydro-[1,1′-biphenyl]-2-yl)methyl)-3,6-diazabicyclo[3.1.1]heptan-6-yl)methyl)-6-fluoro-1-oxoisoindolin-2-yl)piperidine-2,6-dione] | 400

Second part, the compound after the results:

IC50 [nM] | Compound
520 | O=C1CCC(N2Cc3cc(NC4CN(Cc5ccccc5-c5ccc(Cl)cc5)C4)c(F)cc3C2=O)C(=O)N1 (centres unmarked) [GT-04204, 3-(5-((1-((4′-chloro-[1,1′-biphenyl]-2-yl)methyl)azetidin-3-yl)amino)-6-fluoro-1-oxoisoindolin-2-yl)piperidine-2,6-dione]
560 | O=C1CCC(N2Cc3cc(CN4CCN(C(=O)c5ccncc5-c5ccc(Cl)cc5)CC4)ccc3C2=O)C(=O)N1 (centres unmarked) [GT-04222, 3-(5-((4-(3-(4-chlorophenyl)isonicotinoyl)piperazin-1-yl)methyl)-1-oxoisoindolin-2-yl)piperidine-2,6-dione]
430 | CC1(C)CCC(C(=O)N2CCN(Cc3ccc4c(c3)CN(C3CCC(=O)NC3=O)C4=O)CC2)=C(c2ccc(Cl)cc2)C1 (centres unmarked) [GT-04224, 3-(5-((4-(4′-chloro-5,5-dimethyl-3,4,5,6-tetrahydro-[1,1′-biphenyl]-2-carbonyl)piperazin-1-yl)methyl)-1-oxoisoindolin-2-yl)piperidine-2,6-dione]
200 | O=C1CCC(N2Cc3cc(NC4CN(C(=O)c5ccccc5-c5ccc(Cl)cc5)C4)ccc3C2=O)C(=O)N1 (centres unmarked) [GT-04397, 3-(5-((1-(4′-chloro-[1,1′-biphenyl]-2-carbonyl)azetidin-3-yl)amino)-1-oxoisoindolin-2-yl)piperidine-2,6-dione]
390 | O=C1CCC(N2Cc3c(CN4CCC(Nc5ccccc5-c5ccc(Cl)cc5)CC4)cccc3C2=O)C(=O)N1 (centres unmarked) [GT-04947, 3-(4-((4-((4′-chloro-[1,1′-biphenyl]-2-yl)amino)piperidin-1-yl)methyl)-1-oxoisoindolin-2-yl)piperidine-2,6-dione]
970 | CC1(C)CCC(C(=O)N2CCN(Cc3ccc(-c4ccc5c(c4)CN(C4CCC(=O)NC4=O)C5=O)cc3)CC2)=C(c2ccc(Cl)cc2)C1 (centres unmarked) [GT-05359, 3-(5-(4-((4-(4′-chloro-5,5-dimethyl-3,4,5,6-tetrahydro-[1,1′-biphenyl]-2-carbonyl)piperazin-1-yl)methyl)phenyl)-1-oxoisoindolin-2-yl)piperidine-2,6-dione]
370 | CC1(C)CCC(CN2CCN(CCc3ccc4c(c3)CN(C3CCC(=O)NC3=O)C4=O)CC2)=C(c2ccc(Cl)cc2)C1 (centres unmarked) [GT-05361, 3-(5-(2-(4-((4′-chloro-5,5-dimethyl-3,4,5,6-tetrahydro-[1,1′-biphenyl]-2-yl)methyl)piperazin-1-yl)ethyl)-1-oxoisoindolin-2-yl)piperidine-2,6-dione]
1260 | CC1(C)CCC(CN2CCN(CCCc3ccc4c(c3)CN(C3CCC(=O)NC3=O)C4=O)CC2)=C(c2ccc(Cl)cc2)C1 (centres unmarked) [GT-05362, 3-(5-(3-(4-((4′-chloro-5,5-dimethyl-3,4,5,6-tetrahydro-[1,1′-biphenyl]-2-yl)methyl)piperazin-1-yl)propyl)-1-oxoisoindolin-2-yl)piperidine-2,6-dione]
1440 | CC1(C)CCC(CN2CCN(C(=O)c3ccc4c(c3)C(=O)N(C3CCC(=O)NC3=O)C4=O)CC2)=C(c2ccc(Cl)cc2)C1 (centres unmarked) [GT-05366, 5-(4-((4′-chloro-5,5-dimethyl-3,4,5,6-tetrahydro-[1,1′-biphenyl]-2-yl)methyl)piperazine-1-carbonyl)-2-(2,6-dioxopiperidin-3-yl)isoindoline-1,3-dione]

— patent US20260028326A1, “COMPOUND BASED ON ISOINDOLINE-SUBSTITUTED GLUTARIMIDE BACKBONE AND USE THEREOF” (GLUETACS THERAPEUTICS (SHANGHAI) CO., LTD., priority 2022, published 2026)
